Test results published in patent US11541027B2 (DelMar Pharmaceuticals, Inc., priority 2014, dated 2023).

Assays:
[1] = system: H1975 (TKI-resistant) human lung adenocarcinoma xenograft tumors; assay: H1975 NSCLC xenograft tumor model in female Rag2 mice
Procedure: Rag2 mice bearing subcutaneous human lung adenocarcinoma xenograft tumors of either TKI-resistant (H1975) or TKI-sensitive (A549) origin were treated.
Two human NSCLC cell lines, A549 (TKI-sensitive) and H1975 (TKI-resistant), were used as xenograft tumor models in female Rag2 mice. The mice were 6 to 8 weeks of age and weighed 18-23 grams. 10 mice were used per group.
Rag2 mice bearing subcutaneous human lung adenocarcinoma xenograft tumors of either TKI-sensitive (A549) or TKI-resistant (H1975) origin were treated. […] Saline was used as control treatment. Disease progression was evaluated by tumor volume, clinical observations and body weight measurements. Blood samples were analyzed for CBC/differential analyses to assess myelosuppression or other changes in blood chemistry.
Cell number for inoculation was 5×10^6 cells for A549 cells in an injection volume of 50 μL per animal. For H1975 cells, cell number for inoculation was 2×10^6 cells in an injection volume of 50 μL per animal.
Treatment was initiated at average tumor volume of 100-150 mm^3.
Tumor growth delay (TGD) was calculated according to Equation (2): TGD=DTtx−DTcontrol (2).
For these calculations, TV is tumor volume, tx is treatment, int is initial, DT is doubling time for mean tumor volume from 200 mm^3 to 400 mm^3 for A549 or from 300 mm^3 to 600 mm^3 for H1975. MTV is mean tumor volume in mm^3 and TCR is tumor control ratio.
Disease progression was evaluated by tumor volume, clinical observations and body weight measurements.

[2] = Stability of reconstituted dianhydrogalactitol stock solution; format: physicochemical; details: 8 mg/mL in 0.9% sodium chloride for injection
Procedure: For administration, 5 mL of 0.9% sodium chloride for injection, USP (saline) was added to yield a DAG solution with a concentration of 8 mg/mL.

Hey = assay: 5-day MTT cytotoxicity, wild-type p53 ovarian tumor panel; format: cell-based, human; details: wt-p53, cisplatin-resistant, N = 3, read-out: DAG IC50 (μM) Mean
Excerpt: (§1) The ovarian tumor panel lines are as follows: • is A2780; ▪ is 2780-CP16; ▴ is OVCAR-10; ▾ is HEY; and ♦ is OVCA-433. Dose-response curves were undertaken using a 5-day MTT assay to determine cell viability. The A2780 represents a cisplatin-sensitive model, whereas the other four cell lines are cisplatin-resistant. The cell line 2780-CP16 was derived for cisplatin resistance from A2780. The properties of some of these cell lines are disclosed in G. S. Hagopian et al., “Expression of p53 in Cisplatin-Resistant Ovarian Cell Lines: Modulation with the Novel Platinum Analog (1R,2R-Diaminocyclohexane)(trans-diacetato)(dichloro)-platinum(IV),” Clin. Cancer Res. 5: 655-663 (1999), and in Z. H. Siddik et al., “Independent Pathways of p53 Induction by Cisplatin and X-Rays in a Cisplatin-Resistant Cell Line,” Cancer Res. 58: 698-703 (1998), both incorporated herein by this reference.
(§2) The data of FIG. 7 are shown in Table 8 in terms of the IC50 of dianhdrogalactitol in the wild-type p53 human ovarian tumor panel.

Ovcar-10 = assay: as above; format: cell-based, human; details: Ovcar-10, wt-p53, cisplatin-resistant, N = 3, read-out: DAG IC50 (μM) Mean
Excerpt: as §1, §2

A2780 = assay: as above; format: cell-based, human; details: A2780, wt-p53, cisplatin-sensitive, N = 3, read-out: DAG IC50 (μM) Mean
Excerpt: as §1, §2

OVCA-433 = assay: as above; format: cell-based, human; details: OVCA-433, wt-p53, cisplatin-resistant, N = 3, read-out: DAG IC50 (μM) Mean
Excerpt: as §1, §2

2780-CP = assay: as above; format: cell-based, human; details: wt-p53, cisplatin-resistant, N = 3, read-out: DAG IC50 (μM) Mean
Excerpt: as §1, §2

[3] = system: NSCLC cell lines other than H460; assay: Cytotoxicity in NSCLC tumor models, range over the cell lines other than H460; format: cell-based, human; details: NSCLC cell lines other than H460, single agents
H1975 = assay: Cytotoxicity in NSCLC tumor models; format: cell-based, human; details: H1975, p53 mu; N = 3
Excerpt: (§3) The cell lines include cell lines with wild-type p53, cell lines with mutant p53, and cell lines in which p53 has been knocked out (“null”). The properties of these cell lines are described in F. Bunz et al., “Requirement for p53 and p21 to Sustain G2 Arrest After DNA Damage,” Science 282: 1497-1501 (1998), incorporated herein by this reference.

A549 = assay: Cytotoxicity in NSCLC tumor models; format: cell-based, human; details: A549, p53 wt; N = 3
Excerpt: as §3

H157 = assay: Cytotoxicity in NSCLC tumor models; format: cell-based, human; details: H157, p53 mu; N = 3
Excerpt: as §3

H838 = assay: Cytotoxicity in NSCLC tumor models; format: cell-based, human; details: H838, p53 wt; N = 3
Excerpt: as §3

H2122 = assay: Cytotoxicity in NSCLC tumor models; format: cell-based, human; details: H2122, p53 mu; N = 3
Excerpt: as §3

H460 = assay: Cytotoxicity in NSCLC tumor models; format: cell-based, human; details: H460, p53 wt; N = 3; listed as DAG
Excerpt: as §3

SkLU1 = assay: Cytotoxicity in NSCLC tumor models; format: cell-based, human; details: SkLU1, p53 mu; N = 3
Excerpt: as §3

H226 = assay: Cytotoxicity in NSCLC tumor models; format: cell-based, human; details: H226, p53 wt; N = 3
Excerpt: as §3

H1299 = assay: Cytotoxicity in NSCLC tumor models; format: cell-based, human; details: H1299, p53 null; N = 3
Excerpt: as §3

RIF-1 cell-line = assay: Standard syngeneic mouse fibrosarcoma model, tumor growth delay; format: in vivo; details: 10 mg/kg, single IP injection, RIF-1 in C3H mice; for Tumor Delay: vs untreated
[4] = 4 mg/kg i.p., stopped after 6 doses

Substance: dianhydrogalactitol
- MTV at Day 31 ([1]; 2 mg/kg i.p. M, W, F × 3): 396 mm^3
- Median survival ([1]; 2 mg/kg i.p. M, W, F × 3): 31 days
- TCR at Day 31 ([1]; 2 mg/kg i.p. M, W, F × 3, tumor control ratio): 0.87
- MTV at Day 31 ([1]; 3 mg/kg i.p. M, W, F × 3): 383 mm^3
- Median survival ([1]; 3 mg/kg i.p. M, W, F × 3): 31 days
- TCR at Day 31 ([1]; 3 mg/kg i.p. M, W, F × 3, tumor control ratio): 0.84
- body weight ([1]; 4 mg/kg i.p. (group 5), treatment stopped after 6 doses, mice then quickly recovered): significant body weight loss
- MTV at Day 31 [1, 4]: 262 mm^3
- Median survival [1, 4]: 41 days
- TCR at Day 31 ([1]; 4 mg/kg i.p., stopped after 6 doses, tumor control ratio): 0.57
- time for which the stock solution was stable ([2]; 4° C.): 24 h
- time for which the stock solution was stable ([2]; room temperature): 4 h
- IC50 (Hey): 2.1 µM
- IC50 (Ovcar-10): 3.6 µM
- IC50 (A2780): 0.54 µM
- IC50 (OVCA-433): 2.3 µM
- IC50 (2780-CP): 2.2 µM
- IC50 [3]: 0.9 to 6.1 µM
- IC50 (H1975): 0.9 µM
- IC50 (A549): 1.75 µM
- IC50 (H157): 4.48 µM
- IC50 (H838): 4.52 µM
- IC50 (H2122): 2.84 µM
- IC50 (H460): 0.49 µM
- IC50 (SkLU1): 2.72 µM
- IC50 (H226): 6.11 µM
- IC50 (H1299): 2.37 µM
- Days to 4 × Median Tumor Size (RIF-1 cell-line): 11.45 days
- Tumor Delay (RIF-1 cell-line): 5.16 days
- Tumor Delay (RIF-1 cell-line; listed as dianhydrogalactitol): 5.6 days
